Here are results for 25 compounds from US8815857B2 (Boehringer Ingelheim International GmbH, priority 2011, dated 2014).

As a reminder, the EC50 is the midpoint of the concentration-response curve. For orientation: solubility means how much of the substance goes into solution per volume. A low value points to a poorly soluble substance.

Each structure is given as a SMILES string. Values after ≈ are worked out from the molar mass of the structure shown.

Data set [1] deals with T1, Recombinant human soluble guanylate cyclase (sGC), alpha 1 / beta 1 subunits, heme-free (Homo sapiens, UniProt Q02108+Q02153).
T1 construct: histidine tag (C); made in house; host or cells: Sf9 insect cells (baculovirus coinfection)
T1 sequence (Q02108 1-690 partner): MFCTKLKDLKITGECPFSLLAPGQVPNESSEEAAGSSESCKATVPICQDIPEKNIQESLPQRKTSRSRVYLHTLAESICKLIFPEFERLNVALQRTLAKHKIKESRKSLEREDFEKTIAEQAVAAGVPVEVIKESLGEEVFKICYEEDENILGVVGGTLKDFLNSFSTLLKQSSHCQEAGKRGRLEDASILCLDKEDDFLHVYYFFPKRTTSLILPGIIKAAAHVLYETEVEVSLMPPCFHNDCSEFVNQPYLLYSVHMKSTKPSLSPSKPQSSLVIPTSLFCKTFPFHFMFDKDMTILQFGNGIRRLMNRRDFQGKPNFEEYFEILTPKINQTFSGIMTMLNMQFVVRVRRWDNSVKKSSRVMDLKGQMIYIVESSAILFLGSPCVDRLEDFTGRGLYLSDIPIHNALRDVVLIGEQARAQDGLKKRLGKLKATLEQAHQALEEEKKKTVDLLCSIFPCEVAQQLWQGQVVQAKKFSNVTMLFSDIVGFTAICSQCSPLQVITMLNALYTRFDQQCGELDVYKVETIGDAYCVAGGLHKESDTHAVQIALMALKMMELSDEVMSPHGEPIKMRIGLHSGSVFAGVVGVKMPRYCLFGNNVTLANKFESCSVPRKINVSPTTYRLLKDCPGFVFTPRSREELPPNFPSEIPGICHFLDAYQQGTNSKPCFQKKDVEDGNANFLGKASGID
T1 sequence (Q02153 1-619): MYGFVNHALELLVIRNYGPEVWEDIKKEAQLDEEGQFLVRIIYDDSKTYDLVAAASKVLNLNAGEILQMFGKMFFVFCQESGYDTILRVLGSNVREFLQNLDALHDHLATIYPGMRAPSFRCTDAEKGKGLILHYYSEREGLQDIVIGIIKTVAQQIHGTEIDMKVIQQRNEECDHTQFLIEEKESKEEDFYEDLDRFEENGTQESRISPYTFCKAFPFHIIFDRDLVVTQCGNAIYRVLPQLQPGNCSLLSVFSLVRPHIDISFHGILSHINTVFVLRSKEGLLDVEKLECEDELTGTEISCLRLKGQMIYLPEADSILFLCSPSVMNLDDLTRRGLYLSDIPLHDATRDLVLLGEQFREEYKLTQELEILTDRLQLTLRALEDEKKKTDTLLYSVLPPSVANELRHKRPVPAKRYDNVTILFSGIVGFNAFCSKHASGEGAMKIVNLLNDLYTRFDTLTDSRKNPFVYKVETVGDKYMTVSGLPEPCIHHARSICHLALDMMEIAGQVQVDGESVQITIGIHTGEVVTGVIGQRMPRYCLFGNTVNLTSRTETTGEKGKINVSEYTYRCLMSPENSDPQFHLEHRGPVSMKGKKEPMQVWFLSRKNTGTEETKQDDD
As to the kind of experiment: Molecular assay: cGMP formation by heme-free recombinant sGC (CisBio cGMP detection kit). Format: biochemical. The following applies: 300 pM heme-free sGC, 37° C., 60 min, cGMP readout; read-out: EC50 nM, Activity of Compounds in Molecular Assay. On the procedure: Recombinant human soluble guanylate cyclase (sGC) is purified from Sf9 insect cells coinfected with baculoviruses expressing the alpha 1 or beta 1 subunit of sGC, both with a C-terminal histidine tag. Heme-free sGC is prepared by treating cell lysate with a final concentration of 0.5% Tween 20 prior to purification on a nickel affinity column.
sGC catalyzes the conversion of guanosine-5′-triphosphate (GTP) to cyclic guanosine monophosphate (cGMP). The activity of sGC is measured in vitro using the commercially available CisBio cGMP detection kit (catalog # 62GM2PEB) in a 384 well format. In brief, 300 pM heme-free sGC is incubated in reaction buffer (50 mM MOPS pH 6.8, 0.2 N KOH, 50 mM NaCl, 2 mM MgCl2, 0.1% BSA, 1.25 mM IBMX, 0.25 mM TCEP, 50 nM GTP) in the presence or absence of dilutions of test compounds diluted in DMSO (final concentration of 1%) in a volume of 10 microL at 37° C. for 60 min. Undiluted reaction products or an 80-fold dilution of reaction products (10 microL of either) prepared in reaction buffer containing 0.2 mM TCEP and 10 mM EDTA is mixed with 5 microL of d2-cGMP plus 5 microL of Eu^3+ cryptate-labeled anti-cGMP, each diluted in buffer containing 0.1 M KPO4 pH 7.5, 0.4 M KF, 20 mM EDTA, 0.2% BSA. After a one h incubation at room temperature in the dark, the mixtures are quantified on an EnVision plate reader (PerkinElmer) according to manufacturer instructions (laser excitation 337 nm, emission 620 and 665 nm). The ratio at each compound concentration is converted to nM cGMP using the linear portion of a calibration curve. Log compound concentration is plotted against combined undiluted and diluted nM cGMP values to determine the EC50 for each curve.

The nature of data set [2]: Assessment of solubility: HT solubility in pION buffer, UV spectrophotometry. The note with it: 16-19 h incubation, 1.0% DMSO; for solubility: pION system solution buffer, kinetic from dmso stock.
The mark [3] stands for this setting: pH 4.5, pH 4.5, aqueous buffer, Solubility (pH 4.5), pH 4.5 buffer.
Where [4] appears, read: pH 7.4, pH 7.4, aqueous buffer, Solubility (pH 7.4), pH 7.4 buffer.

As for `Cc1ccc(OCc2ccc(CNCC(C)(C)O)cc2C)c(-c2csc(N3CCC(C(=O)O)CC3)n2)c1` [Compound 25], the EC50 in data set [1] was found to be 1300 nM. For the same compound, the solubility in data set [2] (setting [3]) and in data set [2] (setting [4]) was more than 63 µg/mL each time.
For `Cc1ccc(OCc2ccc(CNC(C)(C)CO)cc2C)c(-c2csc(N3CCC(C(=O)O)CC3)n2)c1` [Compound 26], the EC50 in data set [1] was determined as 2000 nM. Besides, the solubility in data set [2] (setting [3]) and in data set [2] (setting [4]) was more than 63 µg/mL each time.
`Cc1cc(CN2CCOCC2)ccc1COc1ccc(F)cc1-c1csc(N2CCC(C(=O)O)CC2)n1` [Compound 28]: the EC50 in data set [1] is 200 nM. Further, the solubility in data set [2] (setting [3]) and in data set [2] (setting [4]) was more than 52 µg/mL each time.
As to `Cc1ccc(OCc2ccc(CN3CCCCC3)cc2C#N)c(-c2csc(N3CCC(C(=O)O)CC3)n2)c1` [Compound 29], the EC50 in data set [1] came to 440 nM. For the same compound, the solubility in data set [2] (setting [3]) is more than 64 µg/mL; in data set [2] (setting [4]), 5.2 µg/mL (≈ 9.8 µM).
As to `Cc1ccc(OCc2ccc(C(=O)N3CCCC3)cc2C#N)c(-c2csc(N3CCC(C(=O)O)CC3)n2)c1` [Compound 30, 1-[4-[2-[[2-cyano-4-(pyrrolidine-1-carbonyl)phenyl]methoxy]-5-methyl-phenyl]thiazol-2-yl]piperidine-4-carboxylic acid], the EC50 in data set [1] was found to be 61 nM. Besides, the solubility was 3.1 µg/mL (≈ 5.84 µM) in data set [2] (setting [3]) and more than 53 µg/mL in data set [2] (setting [4]).
For `Cc1cccc(-c2csc(N3CCC(C(=O)O)CC3)n2)c1OCc1ccc(C(=O)N2CCCC2)cc1C#N` [Compound 31] the same measures were 250 nM, 25 µg/mL (≈ 47.1 µM) and more than 53 µg/mL.
Consider `Cc1ccc(OCc2ccc(C(=O)N3CCCCC3)cc2C)c(-c2csc(C3=CCC(C(=O)O)CC3)n2)c1` (stereo not drawn) [Compound 32], for which the EC50 in data set [1] was found to be 310 nM. Further, the solubility worked out at 0.15 µg/mL (≈ 0.283 µM) in data set [2] (setting [3]) and 29 µg/mL (≈ 54.6 µM) in data set [2] (setting [4]).
For `Cc1cc(CN2CCOCC2)ccc1COc1ccc(C#N)cc1-c1csc(N2CC3C(C2)C3C(=O)O)n1` (stereo not drawn) [Compound 33] the same measures were 7800 nM, more than 60 µg/mL and more than 60 µg/mL.
The matching figures for `Cc1ccc(OCc2ccc(C(=O)N3CCCCC3)cc2C)c(-c2csc(N3CC4C(C3)C4C(=O)O)n2)c1` (stereo not drawn) [Compound 34]: 390 nM, 0.9 µg/mL (≈ 1.69 µM) and more than 53 µg/mL.
The matching figures for `Cc1cc(CN2CCOCC2)ccc1COc1c(C#N)cccc1-c1csc(N2CCC(C(=O)O)CC2)n1` [Compound 35]: 280 nM, more than 53 µg/mL and more than 53 µg/mL.
As to `Cc1cccc(-c2csc(N3CCC(C(=O)O)CC3)n2)c1OCc1ccc(CN2CCOCC2)cc1C#N` [Compound 36], the concentration giving a half-maximal response (EC50) in data set [1] came to 140 nM. The solubility in data set [2] (setting [3]) and in data set [2] (setting [4]) was more than 64 µg/mL in each case.
With `Cc1ccc(OCc2ccc(C(=O)N3CCCCC3)cc2C)c(-c2csc([C@H]3CC[C@@H](C(=O)O)CC3)n2)c1` [Compound 37], in data set [1], the EC50 stood at 2100 nM. The solubility in data set [2] (setting [3]) was 0.15 µg/mL (≈ 0.282 µM); in data set [2] (setting [4]), more than 53 µg/mL.
For `Cc1ccc(OCc2ccc(C(=O)N3CCCCC3)cc2C)c(-c2csc([C@H]3CC[C@H](C(=O)O)CC3)n2)c1` [Compound 38] the same measures were 1700 nM, 0.25 µg/mL (≈ 0.469 µM) and more than 53 µg/mL.
The matching figures for `Cc1ccc(OCc2ccc(C(=O)N3CCCCC3)cc2C)c(-c2csc(N3CCC(C(=O)O)CC3)n2)c1` [Compound 39]: 27 nM, 0.95 µg/mL (≈ 1.78 µM) and more than 53 µg/mL.
The matching figures for `Cc1ccc(OCc2ccc(C(=O)N3CCCCC3)cc2C)c(-c2csc(N[C@H]3CC[C@@H](C(=O)O)C3)n2)c1` [Compound 40, (1R,3S)-3-[[4-[5-methyl-2-[[2-methyl-4-(piperidine-1-carbonyl)phenyl]methoxy]phenyl]thiazol-2-yl]amino]cyclopentanecarboxylic acid]: 2600 nM, 2.3 µg/mL (≈ 4.31 µM) and more than 53 µg/mL.
Turning to `Cc1cc(C(=O)N2CCCCC2)ccc1COc1ccccc1-c1csc(N2CCC(C(=O)O)CC2C)n1` (stereo not drawn) [Compound 41], in data set [1], the EC50 came out at 70 nM. In addition, the results for the solubility in data set [2] (setting [3]) and in data set [2] (setting [4]) were 1.1 µg/mL (≈ 2.06 µM) and more than 53 µg/mL, respectively.
On to `Cc1cc(C(=O)N2CCCCC2)ccc1COc1ccccc1-c1csc(N2CCC(C(=O)O)C(C)C2)n1` (stereo not drawn) [Compound 42], for which, in data set [1], the EC50 worked out at 51 nM. Besides, the solubility in data set [2] (setting [3]) is 0.45 µg/mL (≈ 0.843 µM); in data set [2] (setting [4]) it was more than 53 µg/mL.
For `Cc1cc(CN2CCOCC2)ccc1COc1ccccc1-c1csc(N2CC3CCC(C2)C3C(=O)O)n1` (stereo not drawn) [Compound 43] the same measures were 63 nM, more than 60 µg/mL and more than 60 µg/mL.
On to `Cc1cc(CN2CCOCC2)ccc1COc1ccccc1-c1csc(N2C3CCC2CC(C(=O)O)C3)n1` (stereo not drawn) [Compound 44], for which the EC50 in data set [1] amounted to 760 nM. Further, the solubility in data set [2] (setting [3]) and in data set [2] (setting [4]) was more than 60 µg/mL in each case.
As for `Cc1ccc(OCc2ccc(CNC3CCCCC3)cc2C)c(-c2csc(N3CCC(C(=O)O)CC3)n2)c1` [Compound 45], in data set [1], the EC50 amounted to 730 nM. The solubility is more than 64 µg/mL in data set [2] (setting [3]) and 35 µg/mL (≈ 65.6 µM) in data set [2] (setting [4]).
For `COCCN(C)Cc1ccc(COc2ccc(C)cc2-c2csc(N3CCC(C(=O)O)CC3)n2)c(C#N)c1` [Compound 46] the same measures were 260 nM, more than 64 µg/mL and more than 64 µg/mL.
The matching figures for `Cc1ccc(OCc2ccc(CNC(C)(C)CO)cc2C#N)c(-c2csc(N3CCC(C(=O)O)CC3)n2)c1` [Compound 47]: 4000 nM, more than 64 µg/mL and more than 64 µg/mL.
Take `Cc1cc(C(=O)N2CCCCC2)ccc1COc1ccc(F)cc1-c1csc(C2=CCC(C(=O)O)CC2)n1` (stereo not drawn) [Compound 48]: in data set [1], the EC50 was 360 nM. Also, the “Solubility (pH 4.5)” value in data set [2] (pH 4.5 buffer) was determined as 0.1 μg/mL. In data set [2] (setting [4]), this compound had a solubility of 27 µg/mL (≈ 50.5 µM).
As to `Cc1ccc(OCc2ccc(C(=O)N3CCOCC3)cc2C)c(-c2csc(N3CCC(C(=O)O)CC3)n2)c1` [Compound 49], the EC50 in data set [1] came out at 130 nM. The solubility in data set [2] (setting [3]) is 13 µg/mL (≈ 24.3 µM); in data set [2] (setting [4]), more than 53 µg/mL.
For `Cc1ccc(OCc2ccc(CN3CCOCC3)cc2C)c(-c2csc(N3CCC(C)(C(=O)O)CC3)n2)c1` [Compound 51] the same measures were 1100 nM, more than 58 µg/mL and 31 µg/mL (≈ 57.9 µM).
